# Assay results reported in ChEMBL document CHEMBL1153480, “Study on the potential anti-cancer activity of phosphonium and ammonium-based ionic liquids” (2009).
# Assays:
# Format in all cases: functional
# MOLT-4 [1] = assay: cells; conditions: Homo sapiens
# Description: Growth inhibition of human MOLT4 cells assessed as cell growth at 10 uM by SRB assay
# NCI-H460 [2] = assay: cells; conditions: Homo sapiens
# Description: Growth inhibition of human NCI-H460 cells assessed as drug level required for 50% reduction in net protein increase by SRB assay relative to control
# U-251 [3] = assay: cells; conditions: Homo sapiens
# Description: Growth inhibition of human U251 cells assessed as cell growth at 10 uM by SRB assay
# NCI-H522 [4] = assay: cells; conditions: Homo sapiens
# Description: Growth inhibition of human NCI-H522 cells assessed as cell growth at 10 uM by SRB assay
# MOLT-4 [5] = assay: cells; conditions: Homo sapiens; remark: listed apart in the source
# Description: Growth inhibition of human MOLT4 cells assessed as drug level required for 50% reduction in net protein increase by SRB assay relative to control
# TK-10 [6] = assay: cells; conditions: Homo sapiens
# Description: Growth inhibition of human TK10 cells assessed as drug level required for 50% reduction in net protein increase by SRB assay relative to control
# MDA-MB-468 [7] = assay: Cytotoxicity against human MDA-MB-468 cells by SRB assay; conditions: read-out: LC50 (the source's name)
# OVCAR-3 = assay: Cytotoxicity against human OVCAR-3 cells by SRB assay; conditions: read-out: LC50 (the source's name)
# SK-MEL-2 [8] = assay: cells; conditions: Homo sapiens
# Description: Growth inhibition of human SK-MEL-2 cells assessed as drug level required for 50% reduction in net protein increase by SRB assay relative to control
# HCT-15 = assay: cells; conditions: Homo sapiens
# Description: Growth inhibition of human HCT15 cells assessed as cell growth at 10 uM by SRB assay
# cells [9] = conditions: Homo sapiens, Hs-578T
# Description: Growth inhibition of human Hs 578T cells assessed as drug level required for 50% reduction in net protein increase by SRB assay relative to control
# MOLT-4 [10] = assay: Cytotoxicity against human MOLT4 cells by SRB assay; conditions: read-out: LC50 (the source's name)
# SNB-75 [11] = assay: Cytotoxicity against human SNB75 cells by SRB assay; conditions: read-out: LC50 (the source's name)
# HL-60(TB) = assay: cells; conditions: Homo sapiens
# Description: Growth inhibition of human HL-60(TB) cells assessed as cell growth at 10 uM by SRB assay
# MDA-MB-435 [12] = assay: cells; conditions: Homo sapiens
# Description: Growth inhibition of human MDA-MB-435 cells assessed as drug level required for 50% reduction in net protein increase by SRB assay relative to control
# PC-3 [13] = assay: Cytotoxicity against human PC3 cells by SRB assay; conditions: read-out: LC50 (the source's name)
# OVCAR-8 [14] = assay: cells; conditions: Homo sapiens
# Description: Growth inhibition of human OVCAR8 cells assessed as cell growth at 10 uM by SRB assay
# NCI-H522 [15] = assay: cells; conditions: Homo sapiens; remark: listed apart in the source
# Description: Growth inhibition of human NCI-H522 cells assessed as drug level required for 50% reduction in net protein increase by SRB assay relative to control
# MDA-MB-231 [16] = assay: cells; conditions: Homo sapiens
# Description: Growth inhibition of human MDA-MB-231 cells assessed as drug level required for 50% reduction in net protein increase by SRB assay relative to control
# SNB-75 [17] = assay: cells; conditions: Homo sapiens
# Description: Growth inhibition of human SNB75 cells assessed as drug level required for 50% reduction in net protein increase by SRB assay relative to control
# OVCAR-8 [18] = assay: Cytotoxicity against human OVCAR8 cells by SRB assay; conditions: read-out: LC50 (the source's name)
# HT-29 [19] = assay: cells; conditions: Homo sapiens
# Description: Growth inhibition of human HT-29 cells assessed as drug level required for 50% reduction in net protein increase by SRB assay relative to control
# CCRF-CEM = assay: cells; conditions: Homo sapiens
# Description: Growth inhibition of human CCRF-CEM cells assessed as drug level required for 50% reduction in net protein increase by SRB assay relative to control
# OVCAR-8 [20] = assay: cells; conditions: Homo sapiens; remark: listed apart in the source
# Description: Growth inhibition of human OVCAR8 cells assessed as drug level required for 50% reduction in net protein increase by SRB assay relative to control
# UACC-257 = assay: cells; conditions: Homo sapiens
# Description: Growth inhibition of human UACC257 cells assessed as drug level required for 50% reduction in net protein increase by SRB assay relative to control
# LOX IMVI = assay: cells; conditions: Homo sapiens
# Description: Growth inhibition of human LOXIMVI cells assessed as drug level required for 50% reduction in net protein increase by SRB assay relative to control
# BT-549 = assay: Cytotoxicity against human BT549 cells by SRB assay; conditions: read-out: LC50 (the source's name)
# UACC-62 = assay: cells; conditions: Homo sapiens
# Description: Growth inhibition of human UACC62 cells assessed as drug level required for 50% reduction in net protein increase by SRB assay relative to control
# cells [21] = conditions: Homo sapiens, Hs-578T; read-out: LC50 (the source's name)
# Description: Cytotoxicity against human Hs 578T cells by SRB assay
# SNB-19 [22] = assay: Cytotoxicity against human SNB19 cells by SRB assay; conditions: read-out: LC50 (the source's name)
# DU-145 = assay: cells; conditions: Homo sapiens
# Description: Growth inhibition of human DU145 cells assessed as drug level required for 50% reduction in net protein increase by SRB assay relative to control
# HOP-92 [23] = assay: cells; conditions: Homo sapiens
# Description: Growth inhibition of human HOP92 cells assessed as drug level required for 50% reduction in net protein increase by SRB assay relative to control
# SK-MEL-2 [24] = assay: cells; conditions: Homo sapiens; remark: listed apart in the source
# Description: Growth inhibition of human SK-MEL-2 cells assessed as cell growth at 10 uM by SRB assay
# K562 = assay: Cytotoxicity against human K562 cells by SRB assay; conditions: read-out: LC50 (the source's name)
# SNB-19 [25] = assay: cells; conditions: Homo sapiens
# Description: Growth inhibition of human SNB19 cells assessed as cell growth at 10 uM by SRB assay
# SK-MEL-28 [26] = assay: cells; conditions: Homo sapiens
# Description: Growth inhibition of human SK-MEL-28 cells assessed as drug level required for 50% reduction in net protein increase by SRB assay relative to control
# SK-MEL-2 [27] = assay: Cytotoxicity against human SK-MEL-2 cells by SRB assay; conditions: read-out: LC50 (the source's name)
# PC-3 [28] = assay: cells; conditions: Homo sapiens
# Description: Growth inhibition of human PC3 cells assessed as drug level required for 50% reduction in net protein increase by SRB assay relative to control
# T47D [29] = assay: Cytotoxicity against human T47D cells by SRB assay; conditions: read-out: LC50 (the source's name)
# cells [30] = conditions: Homo sapiens, CAKI
# Description: Growth inhibition of human CAKI cells assessed as drug level required for 50% reduction in net protein increase by SRB assay relative to control
# UO-31 [31] = assay: cells; conditions: Homo sapiens
# Description: Growth inhibition of human UO31 cells assessed as cell growth at 10 uM by SRB assay
# MDA-MB-468 [32] = assay: cells; conditions: Homo sapiens
# Description: Growth inhibition of human MDA-MB-468 cells assessed as drug level required for 50% reduction in net protein increase by SRB assay relative to control
# MDA-MB-435 [33] = assay: Cytotoxicity against human MDA-MB-435 cells by SRB assay; conditions: read-out: LC50 (the source's name)
# SK-MEL-5 = assay: cells; conditions: Homo sapiens
# Description: Growth inhibition of human SK-MEL-5 cells assessed as drug level required for 50% reduction in net protein increase by SRB assay relative to control
# SR = assay: Cytotoxicity against human SR cells by SRB assay; conditions: read-out: LC50 (the source's name)
# SK-MEL-28 [34] = assay: Cytotoxicity against human SK-MEL-28 cells by SRB assay; conditions: read-out: LC50 (the source's name)
# T47D [35] = assay: cells; conditions: Homo sapiens
# Description: Growth inhibition of human T47D cells assessed as drug level required for 50% reduction in net protein increase by SRB assay relative to control
# MCF7 = assay: Cytotoxicity against human MCF7 cells by SRB assay; conditions: read-out: LC50 (the source's name)
# HT-29 [36] = assay: cells; conditions: Homo sapiens; remark: listed apart in the source
# Description: Growth inhibition of human HT-29 cells assessed as cell growth at 10 uM by SRB assay
# T47D [37] = assay: cells; conditions: Homo sapiens; remark: listed apart in the source
# Description: Growth inhibition of human T47D cells assessed as cell growth at 10 uM by SRB assay
# HCC 2998 [38] = assay: Cytotoxicity against human HCC2998 cells by SRB assay; conditions: read-out: LC50 (the source's name)
# Malme-3M = assay: Cytotoxicity against human MALME-3M cells by SRB assay; conditions: read-out: LC50 (the source's name)
# HOP-62 = assay: cells; conditions: Homo sapiens
# Description: Growth inhibition of human HOP62 cells assessed as cell growth at 10 uM by SRB assay
# TK-10 [39] = assay: cells; conditions: Homo sapiens; remark: listed apart in the source
# Description: Growth inhibition of human TK10 cells assessed as cell growth at 10 uM by SRB assay
# SF-539 = assay: cells; conditions: Homo sapiens
# Description: Growth inhibition of human SF539 cells assessed as drug level required for 50% reduction in net protein increase by SRB assay relative to control
# KM12 = assay: cells; conditions: Homo sapiens
# Description: Growth inhibition of human KM12 cells assessed as cell growth at 10 uM by SRB assay
# HCC 2998 [40] = assay: cells; conditions: Homo sapiens
# Description: Growth inhibition of human HCC2998 cells assessed as drug level required for 50% reduction in net protein increase by SRB assay relative to control
# NCI-H460 [41] = assay: cells; conditions: Homo sapiens; remark: listed apart in the source
# Description: Growth inhibition of human NCI-H460 cells assessed as cell growth at 10 uM by SRB assay
# MDA-MB-231 [42] = assay: cells; conditions: Homo sapiens; remark: listed apart in the source
# Description: Growth inhibition of human MDA-MB-231 cells assessed as cell growth at 10 uM by SRB assay
# A549 = assay: Cytotoxicity against human A549 cells by SRB assay; conditions: read-out: LC50 (the source's name)
# U-251 [43] = assay: cells; conditions: Homo sapiens; remark: listed apart in the source
# Description: Growth inhibition of human U251 cells assessed as drug level required for 50% reduction in net protein increase by SRB assay relative to control
# NCI-H322M [44] = assay: cells; conditions: Homo sapiens
# Description: Growth inhibition of human NCI-H322M cells assessed as cell growth at 10 uM by SRB assay
# ACHN = assay: cells; conditions: Homo sapiens
# Description: Growth inhibition of human ACHN cells assessed as drug level required for 50% reduction in net protein increase by SRB assay relative to control
# NCI-H322M [45] = assay: cells; conditions: Homo sapiens; remark: listed apart in the source
# Description: Growth inhibition of human NCI-H322M cells assessed as drug level required for 50% reduction in net protein increase by SRB assay relative to control
# NCI-H522 [46] = assay: Cytotoxicity against human NCI-H522 cells by SRB assay; conditions: read-out: LC50 (the source's name)
# [47] = Cytotoxicity against human CAKI cells by SRB assay; conditions: read-out: LC50 (the source's name)
# UO-31 [48] = assay: cells; conditions: Homo sapiens; remark: listed apart in the source
# Description: Growth inhibition of human UO31 cells assessed as drug level required for 50% reduction in net protein increase by SRB assay relative to control
# COLO 205 [49] = assay: cells; conditions: Homo sapiens
# Description: Growth inhibition of human COLO205 cells assessed as drug level required for 50% reduction in net protein increase by SRB assay relative to control
# HOP-92 [50] = assay: cells; conditions: Homo sapiens; remark: listed apart in the source
# Description: Growth inhibition of human HOP92 cells assessed as cell growth at 10 uM by SRB assay
# COLO 205 [51] = assay: cells; conditions: Homo sapiens; remark: listed apart in the source
# Description: Growth inhibition of human COLO205 cells assessed as cell growth at 10 uM by SRB assay
# RXF 393 = assay: cells; conditions: Homo sapiens
# Description: Growth inhibition of human RFX393 cells assessed as drug level required for 50% reduction in net protein increase by SRB assay relative to control
compound,measurement,setting,value
CCCCCCCCCCCCCCCCCCPCCCCCCCCCCCCCC.O=S(=O)(NS(=O)(=O)C(F)(F)F)C(F)(F)F (stereo unspecified),growth at 10 µM,MOLT-4 [1],51.6%
same,GI50,NCI-H460 [2],315 nM
same,growth at 10 µM,U-251 [3],-68.4%
same,growth at 10 µM,NCI-H522 [4],-71.4%
same,GI50,MOLT-4 [5],69 nM
same,GI50,TK-10 [6],341 nM
same,CC50,MDA-MB-468 [7],2560 nM
same,CC50,OVCAR-3,6760 nM
same,GI50,SK-MEL-2 [8],27 nM
same,growth at 10 µM,HCT-15,7.54%
same,GI50,cells [9],53 nM
same,CC50,MOLT-4 [10],> 100000 nM
same,CC50,SNB-75 [11],> 100000 nM
same,growth at 10 µM,HL-60(TB),43.1%
same,GI50,MDA-MB-435 [12],45 nM
same,CC50,PC-3 [13],5900 nM
same,growth at 10 µM,OVCAR-8 [14],-79.9%
same,GI50,NCI-H522 [15],105 nM
same,GI50,MDA-MB-231 [16],56 nM
same,GI50,SNB-75 [17],76 nM
same,CC50,OVCAR-8 [18],> 100000 nM
same,GI50,HT-29 [19],53 nM
same,GI50,CCRF-CEM,26 nM
same,GI50,OVCAR-8 [20],86 nM
same,GI50,UACC-257,103 nM
same,GI50,LOX IMVI,58 nM
same,CC50,BT-549,> 100000 nM
same,GI50,UACC-62,45 nM
same,CC50,cells [21],> 100000 nM
same,CC50,SNB-19 [22],> 100000 nM
same,GI50,DU-145,156 nM
same,GI50,HOP-92 [23],30 nM
same,growth at 10 µM,SK-MEL-2 [24],-3.57%
same,CC50,K562,> 100000 nM
same,growth at 10 µM,SNB-19 [25],8.99%
same,GI50,SK-MEL-28 [26],207 nM
same,CC50,SK-MEL-2 [27],> 100000 nM
same,GI50,PC-3 [28],45 nM
same,CC50,T47D [29],> 100000 nM
same,GI50,cells [30],236 nM
same,growth at 10 µM,UO-31 [31],-36.6%
same,GI50,MDA-MB-468 [32],36 nM
same,CC50,MDA-MB-435 [33],19800 nM
same,GI50,SK-MEL-5,79 nM
same,CC50,SR,8080 nM
same,CC50,SK-MEL-28 [34],6590 nM
same,GI50,T47D [35],73 nM
same,CC50,MCF7,> 100000 nM
same,growth at 10 µM,HT-29 [36],-58.2%
same,growth at 10 µM,T47D [37],-14.8%
same,CC50,HCC 2998 [38],> 100000 nM
same,CC50,Malme-3M,5380 nM
same,growth at 10 µM,HOP-62,-2.18%
same,growth at 10 µM,TK-10 [39],-43.3%
same,GI50,SF-539,174 nM
same,growth at 10 µM,KM12,-100%
same,GI50,HCC 2998 [40],240 nM
same,growth at 10 µM,NCI-H460 [41],-59.4%
same,growth at 10 µM,MDA-MB-231 [42],-38.3%
same,CC50,A549,> 100000 nM
same,GI50,U-251 [43],41 nM
same,growth at 10 µM,NCI-H322M [44],-11.9%
same,GI50,ACHN,260 nM
same,GI50,NCI-H322M [45],321 nM
same,CC50,NCI-H522 [46],> 100000 nM
same,CC50,[47],> 100000 nM
same,GI50,UO-31 [48],350 nM
same,GI50,COLO 205 [49],182 nM
same,growth at 10 µM,HOP-92 [50],-67.1%
same,growth at 10 µM,COLO 205 [51],-65.4%
same,GI50,RXF 393,141 nM
